Key:
[1] = target: T1, Dual specificity tyrosine-phosphorylation-regulated kinase 2 (Homo sapiens) (UniProt Q92630); test: Selectivity interaction (KinomeScan (DiscoverX)) EUB0000666a DYRK2; settings: at 10 µM
T1 sequence (whole entry): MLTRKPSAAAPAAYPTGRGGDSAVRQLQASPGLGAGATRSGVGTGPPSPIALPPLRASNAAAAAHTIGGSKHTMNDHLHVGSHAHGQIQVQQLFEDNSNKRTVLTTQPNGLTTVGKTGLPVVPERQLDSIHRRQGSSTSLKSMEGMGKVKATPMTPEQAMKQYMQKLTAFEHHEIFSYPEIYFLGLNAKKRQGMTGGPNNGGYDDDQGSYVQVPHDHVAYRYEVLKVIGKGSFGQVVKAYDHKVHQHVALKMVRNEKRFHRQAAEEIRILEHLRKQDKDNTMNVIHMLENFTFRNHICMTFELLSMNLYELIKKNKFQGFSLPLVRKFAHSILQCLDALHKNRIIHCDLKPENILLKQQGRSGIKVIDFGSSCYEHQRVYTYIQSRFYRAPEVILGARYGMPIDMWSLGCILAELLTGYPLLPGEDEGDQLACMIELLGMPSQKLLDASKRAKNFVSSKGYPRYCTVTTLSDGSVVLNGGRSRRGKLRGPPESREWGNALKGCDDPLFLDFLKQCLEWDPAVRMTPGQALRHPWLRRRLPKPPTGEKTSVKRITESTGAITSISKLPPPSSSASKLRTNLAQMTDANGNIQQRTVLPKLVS

[2] = target: Platelet-derived growth factor receptor beta (Homo sapiens, UniProt P09619); test: Selectivity interaction (Kinase panel (Invitrogen)) EUB0000639a PDGFRB; settings: at 200 nM
[3] = target: Serine/threonine-protein kinase PAK 6 (Homo sapiens) (UniProt Q9NQU5); test: Selectivity interaction (KinomeScan (DiscoverX)) EUB0000595a PAK6; settings: at 10 µM
[4] = target: T2, Mitogen-activated protein kinase kinase kinase 5 (Homo sapiens) (UniProt Q99683); test: Selectivity interaction (KinomeScan (DiscoverX)) EUB0000655a MAP3K5; settings: at 10 µM
T2 sequence (whole entry): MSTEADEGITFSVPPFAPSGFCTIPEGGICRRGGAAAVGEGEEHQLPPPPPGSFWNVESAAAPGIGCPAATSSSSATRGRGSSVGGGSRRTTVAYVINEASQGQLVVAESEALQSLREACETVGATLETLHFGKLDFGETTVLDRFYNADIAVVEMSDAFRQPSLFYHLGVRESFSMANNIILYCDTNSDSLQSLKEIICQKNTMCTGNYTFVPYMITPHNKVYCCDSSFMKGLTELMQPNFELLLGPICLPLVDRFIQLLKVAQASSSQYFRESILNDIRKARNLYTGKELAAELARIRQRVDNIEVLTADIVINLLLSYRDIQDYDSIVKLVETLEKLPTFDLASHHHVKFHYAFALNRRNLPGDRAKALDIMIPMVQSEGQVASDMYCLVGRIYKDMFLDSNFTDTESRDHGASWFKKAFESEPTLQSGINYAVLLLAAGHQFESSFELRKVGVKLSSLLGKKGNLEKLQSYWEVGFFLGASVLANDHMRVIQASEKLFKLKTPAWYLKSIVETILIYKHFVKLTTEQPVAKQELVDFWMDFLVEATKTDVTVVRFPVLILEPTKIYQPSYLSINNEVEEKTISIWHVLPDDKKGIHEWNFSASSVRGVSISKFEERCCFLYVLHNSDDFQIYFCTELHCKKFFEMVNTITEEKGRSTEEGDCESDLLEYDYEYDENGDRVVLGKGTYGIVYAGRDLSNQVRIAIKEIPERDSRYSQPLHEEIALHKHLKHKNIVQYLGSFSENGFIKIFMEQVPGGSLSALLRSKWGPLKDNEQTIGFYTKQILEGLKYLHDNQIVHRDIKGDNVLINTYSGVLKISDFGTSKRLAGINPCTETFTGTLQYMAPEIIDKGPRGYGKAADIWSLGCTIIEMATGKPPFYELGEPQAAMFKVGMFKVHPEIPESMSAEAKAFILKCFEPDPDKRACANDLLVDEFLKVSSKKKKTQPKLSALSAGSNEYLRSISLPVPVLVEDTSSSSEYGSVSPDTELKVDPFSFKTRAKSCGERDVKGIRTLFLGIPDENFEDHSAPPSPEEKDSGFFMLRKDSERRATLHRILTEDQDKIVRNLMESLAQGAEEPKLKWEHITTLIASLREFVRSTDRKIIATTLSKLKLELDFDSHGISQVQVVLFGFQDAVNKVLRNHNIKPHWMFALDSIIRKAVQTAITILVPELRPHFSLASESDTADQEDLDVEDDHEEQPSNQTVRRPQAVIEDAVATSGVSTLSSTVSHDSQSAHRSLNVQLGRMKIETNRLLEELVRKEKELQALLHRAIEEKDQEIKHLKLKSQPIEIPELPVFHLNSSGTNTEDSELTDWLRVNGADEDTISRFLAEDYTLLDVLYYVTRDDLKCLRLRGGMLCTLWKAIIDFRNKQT

[5] = target: T3, Tyrosine-protein kinase receptor TYRO3 (Homo sapiens) (UniProt Q06418); settings: at 10 µM
T3 sequence (whole entry): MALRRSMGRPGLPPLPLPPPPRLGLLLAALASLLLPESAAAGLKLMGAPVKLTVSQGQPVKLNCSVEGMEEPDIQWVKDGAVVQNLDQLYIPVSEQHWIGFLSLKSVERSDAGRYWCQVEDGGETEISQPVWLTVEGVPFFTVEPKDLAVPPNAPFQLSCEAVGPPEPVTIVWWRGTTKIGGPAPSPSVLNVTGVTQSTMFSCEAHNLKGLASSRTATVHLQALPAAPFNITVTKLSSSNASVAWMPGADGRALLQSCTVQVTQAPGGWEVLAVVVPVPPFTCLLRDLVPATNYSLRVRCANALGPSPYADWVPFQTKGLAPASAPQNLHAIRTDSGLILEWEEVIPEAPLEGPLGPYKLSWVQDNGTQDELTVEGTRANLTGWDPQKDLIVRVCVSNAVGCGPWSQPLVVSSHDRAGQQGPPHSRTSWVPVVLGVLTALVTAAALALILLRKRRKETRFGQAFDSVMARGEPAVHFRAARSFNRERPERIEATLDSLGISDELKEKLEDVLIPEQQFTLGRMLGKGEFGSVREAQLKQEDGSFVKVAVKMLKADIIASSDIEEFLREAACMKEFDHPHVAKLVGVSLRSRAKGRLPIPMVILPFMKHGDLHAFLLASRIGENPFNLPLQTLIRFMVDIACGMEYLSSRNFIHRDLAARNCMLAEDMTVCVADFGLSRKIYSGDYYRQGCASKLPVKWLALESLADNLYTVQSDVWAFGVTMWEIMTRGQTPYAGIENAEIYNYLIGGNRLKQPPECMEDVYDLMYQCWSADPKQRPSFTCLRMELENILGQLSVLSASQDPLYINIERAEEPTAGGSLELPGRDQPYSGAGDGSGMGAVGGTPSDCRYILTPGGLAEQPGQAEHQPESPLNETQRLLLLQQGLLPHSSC

[6] = target: Serine/threonine-protein kinase PLK2 (Homo sapiens, UniProt Q9NYY3); settings: at 10 µM
Serine/threonine-protein kinase PLK2, sequence (Q9NYY3 whole entry, looked up): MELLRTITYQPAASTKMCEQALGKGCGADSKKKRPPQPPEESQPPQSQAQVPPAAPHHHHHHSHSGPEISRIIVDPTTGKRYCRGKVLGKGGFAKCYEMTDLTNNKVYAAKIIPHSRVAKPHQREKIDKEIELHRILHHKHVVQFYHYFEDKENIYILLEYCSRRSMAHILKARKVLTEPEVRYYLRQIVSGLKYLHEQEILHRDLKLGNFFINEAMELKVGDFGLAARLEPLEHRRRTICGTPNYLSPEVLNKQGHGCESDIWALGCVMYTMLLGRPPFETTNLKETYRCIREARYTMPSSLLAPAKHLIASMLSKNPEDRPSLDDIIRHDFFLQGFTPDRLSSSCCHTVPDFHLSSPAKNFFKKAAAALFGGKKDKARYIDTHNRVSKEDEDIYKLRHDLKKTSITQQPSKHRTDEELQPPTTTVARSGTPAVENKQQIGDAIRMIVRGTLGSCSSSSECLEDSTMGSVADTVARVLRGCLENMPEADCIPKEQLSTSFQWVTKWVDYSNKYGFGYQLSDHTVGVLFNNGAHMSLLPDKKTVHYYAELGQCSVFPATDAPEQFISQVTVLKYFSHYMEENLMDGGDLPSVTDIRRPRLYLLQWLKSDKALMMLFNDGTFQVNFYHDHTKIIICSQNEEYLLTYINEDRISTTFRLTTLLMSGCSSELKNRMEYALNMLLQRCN

Platelet-derived growth factor receptor beta, sequence (P09619 whole entry): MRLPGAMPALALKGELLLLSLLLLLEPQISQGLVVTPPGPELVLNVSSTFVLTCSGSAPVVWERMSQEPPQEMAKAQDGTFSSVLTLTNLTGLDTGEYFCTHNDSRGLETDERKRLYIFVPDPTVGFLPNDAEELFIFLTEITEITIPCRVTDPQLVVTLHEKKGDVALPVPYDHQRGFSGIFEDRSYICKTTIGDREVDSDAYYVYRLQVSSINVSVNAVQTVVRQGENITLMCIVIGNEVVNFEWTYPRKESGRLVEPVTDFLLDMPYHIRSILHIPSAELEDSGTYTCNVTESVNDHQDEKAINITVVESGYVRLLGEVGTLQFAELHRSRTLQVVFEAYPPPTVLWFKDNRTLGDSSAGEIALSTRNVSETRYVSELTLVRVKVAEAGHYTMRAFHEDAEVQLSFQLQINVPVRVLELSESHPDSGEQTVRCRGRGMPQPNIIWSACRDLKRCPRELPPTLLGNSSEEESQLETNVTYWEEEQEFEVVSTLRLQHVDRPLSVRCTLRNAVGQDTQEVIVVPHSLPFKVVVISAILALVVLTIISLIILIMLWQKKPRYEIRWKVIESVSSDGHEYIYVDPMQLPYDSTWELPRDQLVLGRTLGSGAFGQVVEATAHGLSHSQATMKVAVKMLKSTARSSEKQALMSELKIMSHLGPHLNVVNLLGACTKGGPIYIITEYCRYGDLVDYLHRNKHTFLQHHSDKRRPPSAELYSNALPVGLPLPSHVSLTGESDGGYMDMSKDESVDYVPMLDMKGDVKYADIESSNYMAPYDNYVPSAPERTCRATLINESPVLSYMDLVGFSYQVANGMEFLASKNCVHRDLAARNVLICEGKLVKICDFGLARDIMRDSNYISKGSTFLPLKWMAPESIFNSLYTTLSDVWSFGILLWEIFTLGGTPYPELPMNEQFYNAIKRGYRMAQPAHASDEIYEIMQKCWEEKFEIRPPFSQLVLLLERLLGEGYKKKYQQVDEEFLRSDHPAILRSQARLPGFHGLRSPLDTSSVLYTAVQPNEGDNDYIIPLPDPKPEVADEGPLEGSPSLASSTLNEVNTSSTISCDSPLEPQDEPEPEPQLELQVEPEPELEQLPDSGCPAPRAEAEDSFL
Serine/threonine-protein kinase PAK 6 (Homo sapiens), sequence (Q9NQU5 whole entry, looked up): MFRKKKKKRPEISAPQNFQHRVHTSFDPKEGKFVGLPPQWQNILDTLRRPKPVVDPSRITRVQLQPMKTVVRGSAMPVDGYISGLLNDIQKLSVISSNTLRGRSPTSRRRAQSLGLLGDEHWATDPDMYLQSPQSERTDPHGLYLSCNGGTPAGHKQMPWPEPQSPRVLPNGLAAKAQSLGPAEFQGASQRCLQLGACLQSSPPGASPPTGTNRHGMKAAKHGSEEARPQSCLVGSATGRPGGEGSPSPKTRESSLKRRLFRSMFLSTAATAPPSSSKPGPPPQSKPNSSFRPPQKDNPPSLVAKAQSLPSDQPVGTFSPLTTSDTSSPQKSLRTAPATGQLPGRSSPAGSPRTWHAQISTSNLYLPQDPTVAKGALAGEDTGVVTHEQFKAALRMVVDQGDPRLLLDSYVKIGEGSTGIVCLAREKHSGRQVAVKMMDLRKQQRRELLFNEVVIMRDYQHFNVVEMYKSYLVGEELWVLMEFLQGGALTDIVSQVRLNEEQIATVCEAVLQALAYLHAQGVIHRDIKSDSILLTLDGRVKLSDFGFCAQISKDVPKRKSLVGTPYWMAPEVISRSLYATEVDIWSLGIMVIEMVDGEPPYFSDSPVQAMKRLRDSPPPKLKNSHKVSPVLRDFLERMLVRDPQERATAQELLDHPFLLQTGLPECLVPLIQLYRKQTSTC

Question: How did the % of control [1] turn out when `O=C(NOC[C@H](O)CO)c1ccc(F)c(F)c1Nc1ccc(I)cc1F` was run?
Answer: 95%

Question: With `CC[C@@H]1[C@H](F)C(=O)N[C@@H]1COc1nccc2cc(C(N)=O)c(OC)cc12` [ZIMLOVISERTIB] as the compound, how does the % of inhibition [2] read?
Answer: -2.22%

Question: `COCC(=O)NC/C=C/c1ccc2ncnc(Nc3ccc(Oc4ccc(C)nc4)c(C)c3)c2c1` [CP-724714] was tested. Which % of control [3] did it give?
Answer: 87%

Question: For `CN(C)CCOc1ccc(-c2nc(-c3ccncc3)c(-c3ccc4c(c3)CC/C4=N\O)[nH]2)cc1`, which % of control [4] is on record?
Answer: 94%

Question: How did the % of control [5] turn out when `Cc1cc([C@@H](C)Nc2ccccc2C(=O)O)c2nc(N3CCOCC3)cc(=O)n2c1` [AZD-6482] was run?
Answer: 100%

Question: What about the % of control [6] of the same compound?
Answer: 99%
